In US20070037887A1, “Blockade of mtor to prevent a hormonal adaptive response” (University of Virginia Patent Foundation, priority 2003, published 2007):

Assays:
mTOR = target: T1, mTOR (Rattus norvegicus, UniProt P42346); test: Immune complex assay of mTOR activity, compound added to extracts or immune complexes; assay type: biochemical; conditions: for PHAS-I kinase activity of AU1-mTOR: extracts incubated with increasing concentrations
T1 construct: expressed in transfected cells; host or cells: 293T
Method: 293T cells were transfected with expression vectors for AU1-epitope tagged mTOR, HA-tagged raptor, and HA-tagged mLST8. After 24 h, the overexpressed mTOR was immunoprecipitated with AU1 antibodies, and immune complexes were incubated with increasing concentrations of FTS in a reaction mixture containing 2 mM [γ^32P] ATP (250 μCi/ml), 20 mM MnCl2, and 0.1 mg/ml purified recombinant histidine-tagged PHAS-1. After fifteen minutes the reaction was stopped by adding SDS sample buffer, and samples were subjected to SDS-PAGE. The amount of ^32P incorporated into PHAS-I was determined and expressed as a percentage of that incorporated in the absence of FTS. Mean values±the half the range of two experiments are presented.
293T cells were transfected with pcDNA3 alone (Vec.) or with a combination of pcDNA3AU1-mTOR, pcDNA33HA-Raptor, and pcDNA33HA-mLST8. Extracts of the cells were incubated with increasing concentrations of FTS before AU1-mTOR was immunoprecipated. Samples of the immune complexes were incubated with [γ-^32P]ATP and recombinant [His^6]PHAS-I, then subjected to SDS-PAGE and transferred to an immobilon membrane. After obtaining a phosphorimage of the membrane to detect ^32P-PHAS-I, the membrane was immunoblotted with PThr^36/45 antibodies. Other samples of the immune complexes were subjected to SDS-PAGE and immunoblots were prepared with antibodies to the HA epitope or to mTOR (see FIG. 13A). Extracts of nontransfected 293T cells were incubated with increasing concentrations of FTS before mTOR was immunoprecipated with mTAb1. A control immunoprecipitation was conducted using nonimmune IgG (NI). Immune complexes were subjected to SDS-PAGE and immunoblots were prepared with antibodies to mLST8, mTOR, and raptor.
Samples of extracts from 293T cells overexpressing AU1-mTOR, HA-raptor, and HA-mLST8 were incubated for 1 h with increasing concentrations of FTS (●, ▴, ▪) or GTS (∘, Δ, □) before immunoprecipitations were conducted with anti-AU1 antibodies. mTOR kinase activity (●, ∘) was determined by measuring ^32P incorporation into [His^6]PHAS-I in immune complex kinases assays performed with [γ-^32P]ATP (see FIG. 14A). The relative amounts of HA-raptor (▴, Δ) and HA-mLST8 (▪, □) that coimmunoprecipitated with AU1-mTOR were determined after immunoblotting with anti-HA antibodies (see FIG. 14B). The results (mean values+S.E. from 5 experiments) are expressed as percentages of the mTOR activity (FIG. 14A) or coimmunoprecipitating proteins (FIG. 14B) from samples incubated without FTS or GTS, and have been corrected for the amounts of AU1-mTOR immunoprecipitated.
293T cells were transfected with pcDNA3 alone (Vec.) or with a combination of pcDNA3AU1-mTOR, pcDNA33HARaptor, and pcDNA33HA-mLST8. AU1-mTOR was immunoprecipitated and samples of the washed immune complexes were at incubated […] for 30 min with no inhibitors or with the following: caffeine (1 mM), FTS (50 μM), LY294002 (10 μM), rapamycin (1 μM) plus FKBP12 (10 μM), and 1 μM wortmannin. To prevent destruction of wortmannin, incubations were conducted in the absence of thiol reducing agents. Samples of the immune complexes were incubated for 10 min with 10 mM MnCl2, 1 mM [γ-^32P]ATP, and 50 μg/ml [His^6]PHAS-I to assess mTOR activity. Other samples were rinsed twice, subjected to SDS-PAGE, and immunoblotted with anti-HA and anti-AU1 antibodies to determine the amounts of HA-raptor and HA-mLST8 associated with AU1-mTOR. The relative amounts of ^32P incorporated into PHAS-I were determined by phosphorimaging (see FIG. 15B).

mTOR-mLST8 = test: Coimmunoprecipitation of mLST8 with mTOR from 293T cells incubated with compound; assay type: cell-based; conditions: overexpressed in 293T cells, 1 h
Method: FIG. 11A & 11B represent data showing FTS inhibits PHAS-I phosphorylation and promotes dissociation of the mTOR-raptor complex in 293T cells. 293T cells were transfected with pcDNA3AU1-mTOR, pcDNA33HARaptor, pcDNA33HA-mLST8, and pCMV-Tag3APHAS-I (FIG. 11A). After 18 h the cells were incubated for 1 h with increasing concentrations of FTS before extracts were prepared. A sample of each extract was subjected to SDS-PAGE and immunoblotted to detect PHAS-I or PThr^36/45. AU1-mTOR was also immunoprecipitated from each extract, and immune complexes were subjected to SDSPAGE and immunoblotted with mTAb2, to detect mTOR, and with anti-HA antibodies, to detect HA-mLST8 and HA-raptor. Nontransfected 293T cells were incubated with increasing concentrations of FTS for 1 h before extracts were prepared. mTOR was immunoprecipitated with mTAb1, and samples were subjected to SDS-PAGE.
FIGS. 12A & 12B represent data showing the effects of incubating cells with increasing concentrations of FTS and GTS on mTOR activity and mTOR association with raptor and mLST8. AU1-mTOR, HA-raptor, and HAmLST8 were overexpressed in 293T cells. The cells were then incubated for 1 h with increasing concentrations of FTS (●, ▴, ▪) or GTS (∘, Δ, □) before extracts were prepared. Immunoprecipitations were then conducted with anti-AU1 antibodies. mTOR kinase activity (●, ∘) was determined by measuring ^32P incorporation into [His^6]PHAS-I in immune complex kinases assays performed with [γ-^32P]ATP. The relative amounts of HA-raptor (▴, Δ) and HA-mLST8 (▪, □) that coimmunoprecipitated with AU1-mTOR were determined after immunoblotting with anti-HA antibodies. The results (mean values±S.E. from 3 experiments) are expressed as percentages of the mTOR activity (FIG. 12A) or coimmunoprecipitating proteins (FIG. 12B) from samples incubated without FTS or GTS, and have been corrected for the amounts of AU1-mTOR immunoprecipitated.
To investigate further the inhibitory effects of FTS on mTOR signaling, the effect of the drug on the association of mTOR, raptor, and mLST8 was determined. […]

With CC(C)=CCC/C(C)=C/CSc1ccccc1C(=O)O [GTS, S-geranylthiosalicylic acid, reference compound] the “PHAS-I kinase activity of AU1-mTOR” value (mTOR) was “progressive decreases”, the “concentrations for effects on AU1-mTOR activity and AU1-mTOR/HA-raptor association relative to FTS” value (mTOR; extracts of transfected cells) was “approximately ten times higher” and the “amount of HA-mLST8 associated with AU1-mTOR” value (mTOR-mLST8) was “relatively little effect”.

CC(C)=CCC/C(C)=C/CC/C(C)=C/CSc1ccccc1C(=O)O [FTS, farnesylthiosalicylic acid] was tested, and the “concentration at which the effect on mTOR kinase activity could be seen” value (mTOR) was 25 µM, the “concentration of maximal effect on mTOR kinase activity” value (mTOR) was 100 µM and the mTOR activity (mTOR; FTS 50 μM, comparison with other mTOR inhibitors) was “decreased”. The “PHAS-I kinase activity of AU1-mTOR” value (mTOR) was “progressively decreased”, the “concentrations needed to inhibit mTOR activity in vitro relative to intact cells” value (mTOR; extracts vs intact cells) was “Approximately four times lower” and the “ability of mTOR to phosphorylate a substrate specific to mTOR” value (mTOR; recombinant mTOR immunoprecipitated from transfected cells) was “completely blocked”. The “amount of HA-mLST8 associated with AU1-mTOR” value (mTOR-mLST8) was “did not appear to change”.
